The record followed here is patent US9597407B2, “Targeted antimicrobial moieties” (C3 Jian, Inc., priority 2009, dated 2017).

Experiment [1] concerns bacteria. Briefly: Binding of targeting peptides to microorganisms (Table 3). The settings on record: peptide binding in aqueous buffers that varied depending on peptide solubility; preferably 1x PBS.
For experiment [2], the system named is microorganisms. Briefly: Morphology, biofilm and growth disruption by peptides (Table 5). The experiment is classed as cell-based. On the set-up: key: A: Peptide aggregates; B: Less hyphal formation; Clumps; Diffuse clumps and small polyps; F: Diffuse growth; H: Thin; I: Growth inhibition; Microcolony formation; Rippled; Small polyps; Thick; W: Halo formation on top, microlonies on bottom. From the text:
In certain embodiments peptides that induce alterations in phenotype or other biological activities can also be used as antimicrobial effector moieties.

Entries after “also recorded” stand apart in the source; their conditions may differ.

Consider “PF-416 (SKAGLYGKIERSDKRE; Peptide with targeting and/or antimicrobial activity)”, for which the “Target(s) (microorganisms bound by the targeting peptide)” value in experiment [1] is on record as “S. pneumoniae; also recorded: C. jeikeium”. Further, the “Organism, effect” value in experiment [2] (S. pneumoniae) is reported as “S. pneumoniae (H)”.

In the case of “PF-417 (DSYFRS; Peptide with targeting and/or antimicrobial activity)”, the “Target(s) (microorganisms bound by the targeting peptide)” value in experiment [1] is recorded as “S. epidermidis; also recorded: C. jeikeium; also recorded: C. jejuni”. For the same substance, the “Organism, effect” value in experiment [2] (MRSA) is reported as “MRSA (M)”; in experiment [2] (S. epidermidis), “S. epidermidis (M)”; in experiment [2] (S. pneumoniae) it was “S. pneumoniae (M)”.

Take “PF-421 (KHCFEITDKTDVV; Peptide with targeting and/or antimicrobial activity)”: the “Target(s) (microorganisms bound by the targeting peptide)” value in experiment [1] is reported as “C. jeikeium”. In addition, the “Organism, effect” value in experiment [2] (S. pneumoniae) was “S. pneumoniae (H)”.

For “PF-423 (AGKKERLLSFREQFLNKNKKK; Peptide with targeting and/or antimicrobial activity)”, the “Target(s) (microorganisms bound by the targeting peptide)” value in experiment [1] is recorded as “S. epidermidis; also recorded: M. luteus; also recorded: E. coli; also recorded: S. pneumoniae; also recorded: E. faecalis; also recorded: C. jeikeium”. The “Organism, effect (morphology, biofilm and growth disruption)” value in experiment [2] (S. pneumoniae) was “S. pneumoniae (H)”.

In the case of “PF-424 (IAAFVTSRAFSDTVSPI; Peptide with targeting and/or antimicrobial activity)”, the “Target(s) (microorganisms bound by the targeting peptide)” value in experiment [1] is “S. epidermidis and C. albicans and MRSA”. The “Organism, effect (morphology, biofilm and growth disruption)” value in experiment [2] (S. pneumoniae) was “S. pneumoniae (H)”.

For the substance “PF-425 (MMELVLKTIIGPIVVGVVLRIVDKWLNKDK; Peptide with targeting and/or antimicrobial activity)”, in experiment [1], the “Target(s) (microorganisms bound by the targeting peptide)” value is “S. epidermidis and M. luteus and E. coli and P. aeruginosa and C. albicans and MRSA and S. pneumoniae and C. jeikeium”. Further, the “Organism, effect (morphology, biofilm and growth disruption)” value was “C. albicans (A)” in experiment [2] (C. albicans); “C. jejuni (D)” in experiment [2] (C. jejuni); “E. coli (C)” in experiment [2] (E. coli); “E. faecalis (D)” in experiment [2] (E. faecalis); “MRSA (D)” in experiment [2] (MRSA); “P. aeruginosa (A)” in experiment [2] (P. aeruginosa). Also, the “Organism, effect (morphology, biofilm and growth disruption)” value in experiment [2] (S. epidermidis) is listed as “S. epidermidis (D)”; in experiment [2] (S. pneumoniae) it was “S. pneumoniae (D)”.

“PF-426 (MLQKYTQMISVTKCIITKNKKTQENVDAYN; Peptide with targeting and/or antimicrobial activity)”: in experiment [1], the “Target(s) (microorganisms bound by the targeting peptide)” value was “S. epidermidis and E. coli and P. aeruginosa and C. albicans and MRSA and S. pneumoniae and E. faecalis and C. jeikeium”. In addition, the “Organism, effect (morphology, biofilm and growth disruption)” value in experiment [2] (C. albicans) was “C. albicans (A)”; in experiment [2] (C. jejuni), “C. jejuni (D)”; in experiment [2] (E. coli), “E. coli (C)”; in experiment [2] (E. faecalis) it was “E. faecalis (D)”; in experiment [2] (MRSA), “MRSA (D)”; in experiment [2] (S. epidermidis), “S. epidermidis (D)”. In addition, in experiment [2] (S. pneumoniae), the “Organism, effect (morphology, biofilm and growth disruption)” value is recorded as “S. pneumoniae (D)”.

Turning to “PF-427 (YVLEYHGLRATQDVDAFMAL; Peptide with targeting and/or antimicrobial activity)”, in experiment [1], the “Target(s) (microorganisms bound by the targeting peptide)” value is given as “M. luteus; also recorded: P. aeruginosa; also recorded: C. albicans; also recorded: C. jejuni”. The “Organism, effect (morphology, biofilm and growth disruption)” value in experiment [2] (E. coli) was “E. coli (C)”; in experiment [2] (E. faecalis) it was “E. faecalis (C)”; in experiment [2] (MRSA), “MRSA (C)”; in experiment [2] (S. pneumoniae), “S. pneumoniae (R)”.

Regarding “PF-428 (ENEESIF; Peptide with targeting and/or antimicrobial activity)”, the “Target(s) (microorganisms bound by the targeting peptide)” value in experiment [1] is listed as “S. epidermidis; also recorded: C. albicans; also recorded: E. faecalis; also recorded: C. jeikeium”. Also, the “Organism, effect (morphology, biofilm and growth disruption)” value in experiment [2] (S. pneumoniae) is on record as “S. pneumoniae (H)”.

Turning to “PF-429 (AATLICVGSGIMSSL; Peptide with targeting and/or antimicrobial activity)”, in experiment [1], the “Target(s) (microorganisms bound by the targeting peptide)” value was “S. epidermidis; also recorded: S. pneumoniae; also recorded: C. jeikeium”. For the same substance, the “Organism, effect (morphology, biofilm and growth disruption)” value is “E. faecalis (C)” in experiment [2] (E. faecalis), “MRSA (C)” in experiment [2] (MRSA), “S. epidermidis (C)” in experiment [2] (S. epidermidis) and “S. pneumoniae (M)” in experiment [2] (S. pneumoniae).

Take “PF-430 (AVVCGYLAYTATS; Peptide with targeting and/or antimicrobial activity)”: in experiment [1], the “Target(s) (microorganisms bound by the targeting peptide)” value is listed as “S. epidermidis; also recorded: M. luteus; also recorded: E. coli; also recorded: S. pneumoniae; also recorded: E. faecalis; also recorded: C. jeikeium; also recorded: C. jejuni”. Besides, the figures for the “Organism, effect (morphology, biofilm and growth disruption)” value in experiment [2] (MRSA), in experiment [2] (S. epidermidis) and in experiment [2] (S. pneumoniae) were “MRSA (M)”, “S. epidermidis (M)” and “S. pneumoniae (M)”, respectively.

Take “PF-433 (MRKEFHNVLSSGQLLADKRPARDYNRK; Peptide with targeting and/or antimicrobial activity)”: in experiment [1], the “Target(s) (microorganisms bound by the targeting peptide)” value is reported as “S. epidermidis; also recorded: E. coli; also recorded: S. pneumoniae; also recorded: C. jeikeium”. Besides, the “Organism, effect (morphology, biofilm and growth disruption)” value in experiment [2] (S. pneumoniae) is on record as “S. pneumoniae (H)”.

As for “PF-434 (GQLLADKRPARDYNRK; Peptide with targeting and/or antimicrobial activity)”, the “Target(s) (microorganisms bound by the targeting peptide)” value in experiment [1] was “S. epidermidis; also recorded: M. luteus; also recorded: S. pneumoniae; also recorded: C. jeikeium”. Also, in experiment [2] (S. pneumoniae), the “Organism, effect (morphology, biofilm and growth disruption)” value is on record as “S. pneumoniae (S)”.

Take “PF-584 (SYIKNLSNQKFLIAF; Peptide with targeting and/or antimicrobial activity)”: in experiment [1], the “Target(s) (microorganisms bound by the targeting peptide)” value was “S. epidermidis and M. luteus and P. mirabilis and C. albicans and MRSA and S. pneumoniae and E. faecalis and C. jeikeium”. The “Organism, effect (morphology, biofilm and growth disruption)” value is recorded as “C. jejuni (D)” in experiment [2] (C. jejuni); “E. coli (C)” in experiment [2] (E. coli); “E. faecalis (D)” in experiment [2] (E. faecalis); “MRSA (D)” in experiment [2] (MRSA); “S. epidermidis (C)” in experiment [2] (S. epidermidis); “S. pneumoniae (D)” in experiment [2] (S. pneumoniae).

As to “PF-585 (DYNHLLNVVQDWVNTN; Peptide with targeting and/or antimicrobial activity)”, the “Target(s) (microorganisms bound by the targeting peptide)” value in experiment [1] was “S. epidermidis and E. coli and C. albicans and MRSA and S. pneumoniae and C. jeikeium”. The “Organism, effect (morphology, biofilm and growth disruption)” value is “C. jejuni (R)” in experiment [2] (C. jejuni); “E. faecalis (A)” in experiment [2] (E. faecalis); “MRSA (S)” in experiment [2] (MRSA); “S. epidermidis (S)” in experiment [2] (S. epidermidis); “S. pneumoniae (R)” in experiment [2] (S. pneumoniae).
